According to patent US5200553A, “Biologically active carboxylic acid esters” (Kupat Holim Health Insurance Institution of the General …, priority 1987, dated 1993):
Where a name gives a salt, the structure may show the parent alone. Read-outs that look alike come from different tables or passages of the source.

Columns and labels:
Lewis Lung Carcinoma = assay: In vivo efficacy, 3LL32 subcutaneously implanted Lewis Lung Carcinoma; parameters: species or system mouse; conditions: i.p.
Procedure: (§1) Moreover, the in vivo efficacy of the compound of the invention prepared in Example I was tested according to protocols adopted from the "Developmental Therapeutics Program, Division of Cancer Treatment, National Cancer Institute", NIH Publication 84-2635, using the following animal models: (1) 3B131 Intraperitoneally (i.p.) implanted B16 Melanoma; (2) 3B132 Subcutaneously (s.c.) implanted B16 Melanoma: and (3) 3LL32 Subcutaneously (s.c.) implanted Lewis Lung Carcinoma. Results according to the following table were obtained.

[1] = tested on: leukemic cells from six myeloid leukemic patients and promyelocytic cell line HL-60 (which one is not stated); assay: Induction of cytodifferentiation, reduction of nitro blue tetrazolium (NBT); type: cell-based; conditions: 0.15 mM
Procedure: (c) Induction of cytodifferentiation. This was evaluated by reduction of nitro blue tetrazolium (NBT), which is indicative of functional maturity of leucocytes.

[2] = tested on: promyelocytic cell line HL-60; assay: Inhibition of cell proliferation, tritiated thymidine incorporation, cells (ii); type: cell-based; conditions: for inhibition at 500 µM: Homo sapiens
Procedure: (§2) The compound of the invention prepared in Example I gave the results indicated in paragraphs (a), (b) and (c), below, when tested on: (i) leukemic cells from six myeloid leukemic patients, and (ii) promyelocytic cell line HL-60.
(b) Inhibition of cell proliferation. This was evaluated by inhibition of tritiated thymidine incorporation. The results in the following table are self-explanatory:
In a further experiment, cells (ii) were incubated with the compound of Example I or with sodium butyrate. After a period of time as specified in the following table, the agents were removed by washing the cells, and thymidine incorporation was measured 15 hours after the end of incubation.

[3] = tested on: colony forming units, granulocytes and macrophages (CFU-GM); conditions: CFU-GM in soft agar; normal bone marrow and peripheral blood of leukemic patients; unpublished work; cited from earlier work
[4] = cited from earlier work
[5] = in vivo; cited from earlier work
[6] = tested on: leukemic cells from six myeloid leukemic patients; assay: Cytotoxicity, viability of cells 60 hours after exposure, Trypan Blue exclusion, cells (i); type: cell-based; conditions: Homo sapiens, read-out: Concentration which resulted in 50% inhibition (LD50), viability
Procedure: as §2
(§3) (a) Cytotoxicity. The viability of the cells 60 hours after exposure was determined by Trypan Blue exclusion.

[7] = tested on: refractory acute myelogenous leukemia; conditions: 0.5 g./kg./day; cited from earlier work
[8] = tested on: leukemic cells from six myeloid leukemic patients; assay: Inhibition of cell proliferation, tritiated thymidine incorporation, cells (i); type: cell-based, human
Procedure: as §2
(b) Inhibition of cell proliferation. This was evaluated by inhibition of tritiated thymidine incorporation. The results in the following table are self-explanatory: […]

variety of tumor cells = conditions: induction of morphological and biochemical changes; cited from earlier work
neuroblastoma = conditions: doses of up to 10 g./day; cited from earlier work
[9] = tested on: promyelocytic cell line HL-60; assay: Cytotoxicity, viability of cells 60 hours after exposure, Trypan Blue exclusion, cells (ii); type: cell-based; conditions: Homo sapiens, read-out: Concentration which resulted in 50% inhibition (LD50), viability
Procedure: as §2, §3

[10] = tested on: acute myelogenous leukemia; conditions: human, in vivo
[11] = tested on: leukemic cells isolated from myelogenous leukemic patients
[12] = cited from earlier work; remark: listed apart in the source
human lymphocytes = assay: Colony stimulating factors (CSF) production by human lymphocytes, CFU-GM from BALB/c mouse bone marrow; type: cell-based; conditions: for CSF production, # CFU-GM / CSF production, %: 72 hours incubation; for CSF production, %: PHA = 100
Procedure: (§4) CSF activity was assayed by the ability of the supernatants from these cultures to support development on semisolid agar of CFU-GM (colony forming units--granulocytes and macrophages) from bone marrow cells of BALB/c mice.

[13] = Therapeutic index (LD50/ED50), standard procedures; conditions: in vivo
B16 Melanoma [14] = assay: In vivo efficacy, 3B131 intraperitoneally implanted B16 Melanoma; parameters: species or system mouse; conditions: i.p., 1-9 days, daily
mouse spleen cells = assay: Colony stimulating factors (CSF) production by murine splenocytes, CFU-GM from BALB/c mouse bone marrow; type: cell-based; conditions: for CSF production, %: ConA = 100
Procedure: as §4

B16 Melanoma [15] = assay: In vivo efficacy, 3B132 subcutaneously implanted B16 Melanoma; conditions: 125 mg./kg./mouse, i.p.; 1-6 days, daily
Procedure: as §1

[16] = Activity of hydrolysis product under conditions in which the parent compound was active; conditions: conditions in which the parent compound (Example I) was active
Source text: It is postulated that the butyrate esters provided by the invention undergo intracellular hydrolysis to butyric acid; the residual fragments of the hydrolysis would be non-toxic. […] An alternative metabolic route may involve (where appropriate) the oxidation of butyrates to hydroxy-butyrates and/or oxo-butyrates.

[17] = Experiment 1, 20 μM, 24 hours incubation

With `O=P1(N(CCCl)CCCl)NCCCO1` (stereo not shown) [cytoxan, reference compound] the “ILS (increased life span compared to untreated animals)” value (Lewis Lung Carcinoma; 100 mg./kg./mouse, day 1 only) was 152%.

For `CCCC(=O)[O-].[Na+]` [sodium butyrate, reference compound], the “NBT reduction (% of positive cells)” value ([1]; incubation 24 hours) was 11 % of positive cells, the “NBT reduction (% of positive cells)” value ([1]; incubation 48 hours) was 29 % of positive cells and the “NBT reduction (% of positive cells)” value ([1]; incubation 72 hours) was 48 % of positive cells. For the same compound, the “NBT reduction (% of positive cells)” value ([1]; incubation 96 hours) was 66 % of positive cells, the inhibition at 500 µM ([2]; HL-60, read-out: % inhibition of tritiated thymidine incorporation, 0.5 mM, incubation 0.5 hours, washed, measured 15 hours after end of incubation) was 0% and the inhibition at 500 µM ([2]; HL-60, read-out: % inhibition of tritiated thymidine incorporation, 0.5 mM, incubation 3.0 hours, washed, measured 15 hours after end of incubation) was 0%. It also gave an inhibition at 500 µM ([2]; HL-60, read-out: % inhibition of tritiated thymidine incorporation, 0.5 mM, incubation 16.0 hours, washed, measured 15 hours after end of incubation) of 0%, an inhibition at 500 µM ([2]; HL-60, read-out: % inhibition of tritiated thymidine incorporation, 0.5 mM, incubation 24.0 hours, washed, measured 15 hours after end of incubation) of 22% and an inhibition at 500 µM ([2]; HL-60, read-out: % inhibition of tritiated thymidine incorporation, 0.5 mM, incubation 48.0 hours, washed, measured 15 hours after end of incubation) of 50%. For the same compound, the inhibition at 500 µM ([2]; HL-60, read-out: % inhibition of tritiated thymidine incorporation, 0.5 mM, incubation 62.0 hours, washed, measured 15 hours after end of incubation) was 94%.

In the case of `CCCC(=O)O` [butyric acid/salts, butyric acid], the “selectivity (in words)” value [3] is given as “selectivity of butyric acid/salts was demonstrated”, the induction period ([4]; in vitro) is given as 48 h and the induction period ([4]; in vivo) is given as 96 to 120 h. The “clearance (in words)” value [5] was “high clearance”, the “metabolization (in words)” value [5] was “rapid metabolization” and the IC50 [6] was 1000 µM. The “remission (in words)” value [7] was “partial and temporary remission”, the “toxic effects (in words)” value [7] was “without detectable toxic effects” and the “inhibition of tritiated thymidine incorporation (in words)” value ([8]; 24 hours, up to 2 mM) was “no inhibition”. For the same compound, the “inhibition of tritiated thymidine incorporation (in words)” value ([2]; cells (ii), 24 hours, up to 1 mM) was “no inhibition”, the “anti-tumor activity (in words)” value (variety of tumor cells) was “anti-tumor activity” and the “toxicity (in words)” value (neuroblastoma) was “no clinically detectable toxicity”. For the same compound, the IC50 [9] was 400 µM, the “adverse reaction (in words)” value [10] was “no adverse reaction” and the “cytotoxic and cytodifferentiating potency (in words)” value [11] was “the most potent cytotoxic and cytodifferentiating agent”. For the same compound, the “toxicity (in words)” value ([12]; high dosages) was “no toxicity” and the “fluid overload and alkalosis (in words)” value ([12]; human, in vivo) was “fluid overload and mild alkalosis may occur”.

`CCCC(=O)OCOC(=O)C(C)(C)C` [Example I, Pivaloyloxymethyl butyrate] gave an IC50 [6] of 150 µM, an inhibition at 100 µM ([8]; Homo sapiens, 0.1 mM, 15 hrs. exposure) of 88% and an inhibition at 200 µM ([8]; Homo sapiens, 0.2 mM, 15 hrs. exposure) of 99%. The “CSF production, # CFU-GM” value (human lymphocytes; Experiment 1, 20 μM) was 10 # CFU-GM, the “CSF production, %” value (human lymphocytes; Experiment 1, 20 μM) was 33% and the “CSF production, # CFU-GM” value (human lymphocytes; Experiment 1, 50 μM) was 3 # CFU-GM. For the same compound, the “CSF production, %” value (human lymphocytes; Experiment 1, 50 μM) was 10%, the “CSF production, # CFU-GM” value (human lymphocytes; Experiment 2, 20 μM) was 43 # CFU-GM and the “CSF production, %” value (human lymphocytes; Experiment 2, 20 μM) was 105%. The “CSF production, # CFU-GM” value (human lymphocytes; Experiment 2, 50 μM) was 16 # CFU-GM, the “CSF production, %” value (human lymphocytes; Experiment 2, 50 μM) was 39% and the “CSF production (in words)” value (human lymphocytes; human lymphocytes) was “stimulates CSF production”. The “ILS (increased life span compared to untreated animals)” value (Lewis Lung Carcinoma; 125 mg./kg./mouse, 1-6 days, daily) was 152%, the “ILS (increased life span compared to untreated animals)” value (Lewis Lung Carcinoma; 125 mg./kg./mouse, 1-18 days, every odd day) was 186% and the “NBT reduction (% of positive cells)” value ([1]; incubation 24 hours) was 24 % of positive cells. The “NBT reduction (% of positive cells)” value ([1]; incubation 48 hours) was 49 % of positive cells, the “NBT reduction (% of positive cells)” value ([1]; incubation 72 hours) was 66 % of positive cells and the “NBT reduction (% of positive cells)” value ([1]; incubation 96 hours) was 77 % of positive cells. For the same compound, the selectivity ratio [13] was 15 to 20, the “ILS (increased life span compared to untreated animals)” value (B16 Melanoma [14]; 250 mg./kg./mouse) was 154% and the “CSF production, # CFU-GM” value (mouse spleen cells; [17]) was 11 # CFU-GM. For the same compound, the “CSF production, %” value (mouse spleen cells; [17]) was 10%, the “CSF production, %” value (mouse spleen cells; Experiment 1, 50 μM, 24 hours incubation) was 0% and the “CSF production (in words)” value (mouse spleen cells; murine lymphocytes) was “stimulates CSF production”. The inhibition at 500 µM ([2]; HL-60, 0.5 mM, incubation 0.5 hours, washed, measured 15 hours after end of incubation, read-out: % inhibition of tritiated thymidine incorporation) was 52%, the inhibition at 500 µM ([2]; HL-60, 0.5 mM, incubation 3.0 hours, washed, measured 15 hours after end of incubation, read-out: % inhibition of tritiated thymidine incorporation) was 92% and the inhibition at 500 µM ([2]; HL-60, 0.5 mM, incubation 16.0 hours, washed, measured 15 hours after end of incubation, read-out: % inhibition of tritiated thymidine incorporation) was 99%. For the same compound, the inhibition at 500 µM ([2]; HL-60, 0.5 mM, incubation 24.0 hours, washed, measured 15 hours after end of incubation, read-out: % inhibition of tritiated thymidine incorporation) was 99%, the inhibition at 500 µM ([2]; HL-60, 0.5 mM, incubation 48.0 hours, washed, measured 15 hours after end of incubation, read-out: % inhibition of tritiated thymidine incorporation) was 99% and the inhibition at 500 µM ([2]; HL-60, 0.5 mM, incubation 62.0 hours, washed, measured 15 hours after end of incubation, read-out: % inhibition of tritiated thymidine incorporation) was 99%. It also gave an inhibition at 500 µM ([2]; HL-60, 0.5 h, cells (ii), 0.5 mM, 0.5 hr. exposure, read-out: % inhibition of tritiated thymidine incorporation) of 52%, an inhibition at 500 µM ([2]; HL-60, 15 h, cells (ii), 0.5 mM, 15 hrs. exposure, read-out: % inhibition of tritiated thymidine incorporation) of 99% and an IC50 [9] of 100 µM. The “ILS (increased life span compared to untreated animals)” value (B16 Melanoma [15]) was 150%.

In the case of `N.N.[Cl][Pt][Cl]` [cisplatin, reference compound], the “ILS (increased life span compared to untreated animals)” value (B16 Melanoma [14]; 1.5 mg./kg./mouse) is reported as 164%.

In the case of `CC(C)(C)C(=O)O` [pivalic acid], the “activity (in words)” value [16] is reported as “shows no activity”.
